{"source": "patent EP2647374A1", "about": "“Nutritional compositions including beta-hydroxy-beta-methylbutyrate for regulating transcription factors” (Abbott Laboratories, Inc., priority 2012, dated 2013)", "key": {"atrogin-1": {"tested_on": "atrogin-1", "test": "cells", "format": "cell-based", "conditions": "Rattus norvegicus, L6, 48 h, read-out: increase in amount of atrogin-1", "description": "Atrogin-1 analysis. L6 myotubes were pre-incubated with HMB 25 µM or Leu 10 mM for 48 hours. Then, dexamethasone 5 µM was added for another 48 hours. After treatment, cells were lysed with RIPA buffer (Sigma) supplemented with inhibitor protease cocktail (Sigma). Lysates were sonicated and protein concentration was measured using the Bio-Rad Protein Assay. Proteins (40 µg) were separated by SDS-PAGE and immunoblotted with anti-atrogin antibody.\nL6 Myoblasts were differentiated to myotubes for 3 days in 2% FBS. Cells were deprived of FBS for 12 hours and incubated with HMB (25 µM) or Leu (10 mM) and insulin (100 nmol/l) in the absence or presence of dexamethasone (5 µM) for 30 minutes. Cells were lysed in phosphorylation buffer and analyzed by Western blot using an anti-phospho PKB/Akt antibody (FIG. 3A), anti-phospho mTOR antibody (FIG. 3B), or anti-atrogin-1 antibody (FIG. 3C). As a loading control, results were normalized using an anti-total PKB/Akt antibody, anti-total mTOR antibody, or an anti-Histone H3 antibody (see FIGS. 3A-3C, respectively). […] The lower panels of each of FIGS. 3A-3C show densitometric quantification of: phospho-PKB/total PKB protein abundance (FIG. 3A); phospho-mTOR/total mTOR protein abundance (FIG. 3B); or atrogin-1 protein abundance using Histone H3 (FIG. 3C) as a reference control. Results are expressed as means ± SEM of four independent experiments."}, "L6 myotubes [1]": {"tested_on": "L6 myotubes", "test": "Protein degradation assay ([3H]Tyr release) in dexamethasone-treated myotubes", "format": "cell-based, rat", "conditions": "pre-incubation HMB 25 µM or Leu 10 mM 48 hours, then 48 hours with dexamethasone 5 µM", "description": "(§1) Cell culture. The L6.C11 rat skeletal muscle myoblast line (ECACC No. 92102119) was grown in DMEM containing 10% (v/v) FCS, 2 mmol/l Glutamine plus 100 units/ml penicillin and 0.1 mg/ml streptomycin (Sigma) in an atmosphere of air/CO2 (95:5) and maintained at subconfluent densities in growth media. Cells were differentiated to myotubes by exchanging the growth medium for a differentiation medium consisting of DMEM containing 2% (v/v) FCS for 3-4 days (>50% fusion into multinucleated myotubes).\n(§2) Protein synthesis and degradation assays. […] At the completion of the labeling period, cultures were rinsed three times with PBS, cells were lysed with sodium desoxycholate 0.1%/NaOH 0.1 M and protein was precipitated with cold 10% TCA in PBS overnight, rinsed once with cold 10% TCA, solubilized in NaOH 0.5 M, neutralized with HCl 0.5 M and mixed with scintillation fluid, and radioactivity was determined using a scintillation counter. […] Degradation rates were determined according to Hong & Forsberg, 1995.\nTo study the effects of HMB and Leu on protein degradation induced by dexamethasone, L6 differentiated myotubes were first differentiated to myotubes for 3 days in 2% FBS, and then the medium was changed to 10% FBS for the remainder of the experiment. […] After the incubation, protein degradation for each condition was calculated. […] Results are expressed as mean ± SEM of six independent experiments."}, "L6 myotubes [2]": {"tested_on": "L6 myotubes", "test": "Protein synthesis assay ([3H]Tyr incorporation) in dexamethasone-treated myotubes", "format": "cell-based, rat", "conditions": "HMB 25 µM or Leu 10 mM, 2 hours plus 1 hour labeling, dexamethasone 5 µM", "description": "as §1, §2\nParticularly, L6 myotubes were treated with HMB (25 µM) or Leu (10 mM) for 2 hours in the presence or absence of dexamethasone (5 µM). […] After the incubation, protein synthesis for each condition was calculated. […] Results are expressed as means ± SEM of six independent experiments."}, "PKB/Akt": {"tested_on": "PKB/Akt", "test": "Western blot of phospho-PKB/Akt vs total PKB/Akt in L6 myotubes", "format": "cell-based, rat", "conditions": "basal, without dexamethasone; HMB 25 µM or Leu 10 mM, 30 minutes", "description": "(§3) Protein phosphorylation analysis. L6 myotubes were incubated with HMB or Leu in the absence or presence of dexamethasone for 30 minutes. After treatment, plates were flash frozen in liquid nitrogen and were scraped with 50 µl/60 mm/plate of cold 30 mmol/L Tris-HCl pH 7.4, 25 mmol/L NaCl, 1% (v/v) Triton X-100, 0.1% SDS, 10 mmol/L sodium fluoride, 10 mmol/L sodium pyrophosphate, 1 mmol/L sodium orthovanadate, 1 mmol/L EGTA, 20 nmol/L okadaic acid, 10 µg/ml aprotinin, 10 µg/ml leupeptin, 10 µg/ml pepstatin. After 10 minutes on ice, extracts were centrifuged at 13000 g for 10 minutes at 4°C. Protein concentration from the supernatants was measured using the Bio-Rad Protein Assay. […]\n(§4) L6 Myoblasts were differentiated to myotubes for 3 days in 2% FBS. […] Cells were lysed in phosphorylation buffer and analyzed by Western blot using an anti-phospho PKB/Akt antibody (FIG. 3A), anti-phospho mTOR antibody (FIG. 3B), or anti-atrogin-1 antibody (FIG. 3C). […] The lower panels of each of FIGS. 3A-3C show densitometric quantification of: phospho-PKB/total PKB protein abundance (FIG. 3A); phospho-mTOR/total mTOR protein abundance (FIG. 3B); or atrogin-1 protein abundance using Histone H3 (FIG. 3C) as a reference control. Results are expressed as means ± SEM of four independent experiments."}, "mTOR": {"tested_on": "mTOR", "test": "Western blot of phospho-mTOR vs total mTOR in L6 myotubes", "format": "cell-based, rat", "conditions": "basal, without dexamethasone; HMB 25 µM or Leu 10 mM, 30 minutes", "description": "as §3, §4"}, "FOXO": {"tested_on": "FOXO", "test": "FOXO-responsive luciferase reporter assay in L6 cells", "format": "cell-based, rat", "source_text": "(§5) Reporter gene constructs. For the analysis of rat Ubiquitin (UbC) promoter, a 417 bp fragment of 417 bp flanking the transcription start point was amplified from rat genomic DNA. This fragment was similar to those that have been characterized for the human and rat promoters. The sequences of all constructs were verified by automated DNA sequencing. The Cignal FOXO Reporter (luc) kit, CCS-1022L, was provided by SABiosciences and contains a mixture of inducible FOXO-responsive firefly luciferase construct and constitutively expressing Renilla luciferase construct (40:1).\n(§6) DNA transfection assays. For transfection experiments, cells were used at 80-90% confluence. […] Luciferase activity was determined using standard reagents (Dual Luciferase method, Promega) in a luminometer (Sirius L, Berthold Technologies, Bad Wildbad, Germany) and results were standardized for Renilla luciferase activity. […] To allow comparison of the expression patterns, the data were expressed as relative changes in luciferase activity and were normalized to a value of 100%.\nTo address whether the down-regulation of atrogin-1 in HMB- pretreated cells was accompanied by an underlying regulation of the FOXO transcription factor, the total FOXO expression (monitored by using FOXO-luciferase reporter gene activity) and the amount FOXO3a transcription factor in the nucleus were analyzed. […]"}, "FOXO3a": {"tested_on": "FOXO3a", "test": "Western blot of FOXO3a in nuclear extracts of L6 cells (Histone H3 reference)", "format": "cell-based, rat", "description": "Preparation of nuclear extracts. Nuclear extracts from L6 cells were prepared following Bhavsar et al. Protein concentration was measured in nuclear extracts using the Bio-Rad Protein Assay kit. Aliquots of the extracts (40 µg) were resolved by 10% SDS-PAGE and analyzed by immunoblotting using a 1:1000 dilution of polyclonal anti-FOXO3a or anti-Histone H3 antibodies. The antigen-antibody complexes were detected with HRP-conjugated secondary antibodies using a chemiluminescence detection system (Bio-Rad).\nTo address whether the down-regulation of atrogin-1 in HMB- pretreated cells was accompanied by an underlying regulation of the FOXO transcription factor, the total FOXO expression (monitored by using FOXO-luciferase reporter gene activity) and the amount FOXO3a transcription factor in the nucleus were analyzed. L6 Myoblasts were differentiated to myotubes for 3 days in 2% FBS. After the differentiation process, medium was changed to 10% FBS for the remainder of the experiment. Myotubes were incubated in the presence or absence of HMB (25 µM) or Leu (10 mM) for 48 hours. […]\nFurther, L6 untransfected cells were treated as above, nuclear extracts were obtained as described in the material and methods section and analyzed by Western blot using an anti-FOXO3 antibody. […] Results are expressed as means ± SEM of four independent experiments."}, "ERK1/2": {"tested_on": "ERK1/2", "test": "Western blot of phospho-ERK1/2 vs total ERK1/2 in L6 myotubes", "format": "cell-based, rat", "conditions": "HMB 25 µM or Leu 10 mM, 30 minutes", "description": "Protein phosphorylation analysis. L6 myotubes were incubated with HMB or Leu in the absence or presence of dexamethasone for 30 minutes. After treatment, plates were flash frozen in liquid nitrogen and were scraped with 50 µl/60 mm/plate of cold 30 mmol/L Tris-HCl pH 7.4, 25 mmol/L NaCl, 1% (v/v) Triton X-100, 0.1% SDS, 10 mmol/L sodium fluoride, 10 mmol/L sodium pyrophosphate, 1 mmol/L sodium orthovanadate, 1 mmol/L EGTA, 20 nmol/L okadaic acid, 10 µg/ml aprotinin, 10 µg/ml leupeptin, 10 µg/ml pepstatin. After 10 minutes on ice, extracts were centrifuged at 13000 g for 10 minutes at 4°C. Protein concentration from the supernatants was measured using the Bio-Rad Protein Assay. Proteins (25-40 µg) were separated by SDS-PAGE and immunoblotted with selected antibodies; the immunoblots were developed by chemiluminescence detection.\nTaking into account that phosphorylation of FOXO3a by ERK is a required step for FOXO3a ubiquitination and subsequent proteosomal degradation of this transcription factor in the cytoplasm, the effect of HMB and Leu on ERK activation was also analyzed. Specifically, L6 Myoblasts were differentiated to myotubes for 3 days in 2% FBS. […] Cells were lysed in phosphorylation buffer and analyzed by Western blot using an anti-phospho ERK1/2 antibody. […] Results are expressed as means ± SEM of four independent experiments."}, "UbC promoter": {"tested_on": "UbC promoter", "test": "pGL3-UbC luciferase reporter assay in L6 myotubes", "format": "cell-based, rat", "conditions": "pre-treatment HMB 25 µM or Leu 10 mM 48 hours, then dexamethasone 5 µM 48 hours", "source_text": "as §5, §6\nAdditionally, the effect of HMB and Leu on UbC promoter implicated in protein degradation induced by dexamethasone was analyzed. […] Results are expressed as means ± SEM of six independent experiments."}, "[3]": {"conditions": "basal conditions, absence of dexamethasone, HMB 25 µM or Leu 10 mM"}, "[4]": {"conditions": "pre-treatment HMB 25 µM or Leu 10 mM 48 hours, then dexamethasone 5 µM 12 hours"}}}
{"smiles": "C[C@@H]1C[C@H]2[C@@H]3CCC4=CC(=O)C=C[C@]4(C)[C@@]3(F)[C@@H](O)C[C@]2(C)[C@@]1(O)C(=O)CO", "note": "[dexamethasone]", "values": [{"measurement": "fold induction at 5 µM", "setting": "atrogin-1", "value": "> 4"}]}
{"smiles": "CC(C)(O)CC(=O)O", "note": "[HMB, beta-hydroxy-beta-methylbutyrate]", "values": [{"measurement": "inhibition at 25 µM", "setting": "L6 myotubes [1]; Rattus norvegicus, L6, read-out: decrease of proteolysis induced by dexamethasone", "value": "~60", "unit": "%"}]}
{"smiles": "CC(C)C[C@H](N)C(=O)O", "note": "[Leu, Leucine]", "values": [{"measurement": "decrease of proteolysis induced by dexamethasone", "setting": "L6 myotubes [1]", "value": "did not significantly affect glucocorticoid-induced protein degradation"}, {"measurement": "prevention of the decrease in protein synthesis induced by dexamethasone", "setting": "L6 myotubes [2]", "value": "but not Leu"}, {"measurement": "phosphorylative state of Akt", "setting": "PKB/Akt", "value": "did not have influence on the phosporylative state of Akt and mTOR"}, {"measurement": "phosphorylative state of mTOR", "setting": "mTOR", "value": "did not have influence on the phosporylative state of Akt and mTOR"}, {"measurement": "FOXO basal activity", "setting": "FOXO; [3]", "value": "neither HMB nor Leu were able to significantly change FOXO basal activity or amount"}, {"measurement": "FOXO overexpression induced by dexamethasone (reporter activity)", "setting": "FOXO; [4]", "value": "did not have any effect on the dexamethasone-increased FOXO expression and amount"}, {"measurement": "FOXO basal amount (nuclear FOXO3a)", "setting": "FOXO3a; [3]", "value": "neither HMB nor Leu were able to significantly change FOXO basal activity or amount"}, {"measurement": "FOXO3a nuclear translocation induced by dexamethasone", "setting": "FOXO3a; [4]", "value": "did not have any effect on the dexamethasone-increased FOXO expression and amount"}, {"measurement": "ERK activation (phospho-ERK/total ERK)", "setting": "ERK1/2; atrophic conditions (dexamethasone 5 µM)", "value": "induced an activation of ERK kinase either at basal or at atrophic conditions"}, {"measurement": "ERK activation (phospho-ERK/total ERK)", "setting": "ERK1/2; basal conditions", "value": "induced an activation of ERK kinase either at basal or at atrophic conditions"}, {"measurement": "counteraction of the effects of dexamethasone on Ub-C promoter activity", "setting": "UbC promoter", "value": "only HMB was able to significantly counteract the effects of dexamethasone on Ub-C promoter activity"}]}
